ChEMBL document CHEMBL3259724, “Design, syntheses, and characterization of piperazine based chemokine receptor CCR5 antagonists as anti prostate cancer agents” (Bioorg Med Chem Lett, 2014)

Columns and labels:
PC-3 = assay: Antiproliferative activity against human PC3 cells after 72 hrs by WST-1 assay; type: functional, cell-based; conditions: PC-3, 72 h
[1] = Antiproliferative activity against human M12 cells after 72 hrs by WST-1 assay; type: functional, cell-based; conditions: M12, 72 h
[2] = Cytotoxicity against mouse NIH/3T3 cells after 48 hrs by neutral red uptake assay; type: cell-based, NIH3T3; conditions: read-out: TC50
[3] = target: C-C chemokine receptor type 5 (Homo sapiens, UniProt P51681); assay: Antagonist activity at CCR5 (unknown origin) expressed in human MOLT4 cells assessed as inhibition of RANTES-stimulated calcium mobilization treated for 15 mins prior to RANTES addition by spectrophotometric analysis; type: functional, cell-based, MOLT-4
Chain of C-C chemokine receptor type 5 (P51681 whole entry): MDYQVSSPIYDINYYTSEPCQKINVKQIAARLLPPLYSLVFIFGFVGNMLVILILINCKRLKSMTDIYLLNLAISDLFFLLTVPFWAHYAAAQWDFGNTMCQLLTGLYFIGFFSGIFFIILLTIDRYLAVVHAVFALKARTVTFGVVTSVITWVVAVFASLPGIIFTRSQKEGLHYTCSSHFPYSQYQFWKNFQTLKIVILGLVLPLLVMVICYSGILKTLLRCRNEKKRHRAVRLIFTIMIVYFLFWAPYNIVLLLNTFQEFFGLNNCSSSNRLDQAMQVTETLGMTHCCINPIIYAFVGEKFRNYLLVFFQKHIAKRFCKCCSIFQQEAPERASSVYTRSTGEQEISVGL

Compound	IC50 (PC-3) [µM]	IC50 [3] [µM]	IC50 [1] [µM]	CC50 at 48 h [2] [µM]
CSc1ccc(CN2CCN(c3ccc(OC(C)C)c(NC(=O)c4cnccn4)c3)CC2)cc1	78		> 100	
CC(C)Oc1ccc(N2CCN(Cc3ccc(S(C)(=O)=O)cc3)CC2)cc1NC(=O)c1cnccn1	> 100		141	
CC(C)Oc1ccc(N2CCN(Cc3ccccc3)CC2)cc1NC(=O)c1cnccn1	67		29.9	46.6
CC(C)Oc1ccc(N2CCN(Cc3ccc(C(=O)O)cc3)CC2)cc1NC(=O)c1cnccn1	74		129	
COC(=O)c1ccc(CN2CCN(c3ccc(OC(C)C)c(NC(=O)c4cnccn4)c3)CC2)cc1	91.5		73.7	
CC(C)Oc1ccc(N2CCN(Cc3ccc(N(C)C)cc3)CC2)cc1NC(=O)c1cnccn1	71.2		65.9	> 50

The next compounds have a lower IC50 (PC-3) than those just listed; values first:

IC50 (PC-3) [µM]	IC50 [3] [µM]	Compound	IC50 [1] [µM]	CC50 at 48 h [2] [µM]
62.9	16.8	CC(C)Oc1ccc(N2CCN(Cc3ccccc3[N+](=O)[O-])CC2)cc1NC(=O)c1cnccn1	183	> 50
56.1		CC(C)Oc1ccc(N2CCN(Cc3ccc(Cl)cc3)CC2)cc1NC(=O)c1cnccn1	26.3	1.6
49.1		CC(C)Oc1ccc(N2CCN(Cc3ccc([N+](=O)[O-])cc3)CC2)cc1NC(=O)c1cnccn1	78.7	29.3
37.9		Cc1ccc(-c2ccc3c(c2)C=C(C(=O)Nc2ccc(C[N+](C)(C)C4CCOCC4)cc2)CCC3)cc1	20.4	
31.5		CC(C)Oc1ccc(N2CCN(Cc3ccc(Br)cc3)CC2)cc1NC(=O)c1cnccn1	48.8	> 50
24.3		CC(=O)Nc1ccc(CN2CCN(c3ccc(OC(C)C)c(NC(=O)c4cnccn4)c3)CC2)cc1	39	7.8
20.1		CC(C)Oc1ccc(N2CCN(Cc3ccc(N)cc3)CC2)cc1NC(=O)c1cnccn1	19.7	10.7
19.7		Cc1ccc(CN2CCN(c3ccc(OC(C)C)c(NC(=O)c4cnccn4)c3)CC2)cc1	15.8	
6.5		CCN(CC)c1ccc(CN2CCN(c3ccc(OC(C)C)c(NC(=O)c4cnccn4)c3)CC2)cc1	11.4	31.9
